Test results: US10287277B2, “Fumagillol derivatives and polymorphs thereof” (SynDevRx, Inc., priority 2015, dated 2019)
Values belong to the compound of their own block, whether it stands above or below them.

Columns and labels:
[1] = tested on: BC-1 (B-Cell Lymphoma); assay: Single agent cell viability assay (CellTiter-Glo), 72 h continuous exposure; format: cell-based; conditions: Homo sapiens, BC1, BC-1 cells
Procedure: (§1) The half-maximal inhibitory concentration(s) (IC50) of Formula I as a single agent against a panel of human hematological tumor cell lines was investigated. All cell lines were grown in their respective proper growth media supplemented with 5-10% FBS and housed in an atmosphere of 5% CO2 at 37° C.
(§2) Cell Viability Assay—72 Hours Continuous Exposure Time
(§3) 1. 0 hr: Cells were plated in growth media in 96-well microtiter plates at a 200 μL volume. Cells were incubated for 24 hours at 37° C. in a humidified incubator.
(§4) 2. 24 hr: The test agent's drug doses were achieved using HP D300 Digital Dispenser. Briefly, the digital dispenser added test agent in a DMSO solvent at precise volumes to media containing wells. Control wells received equivolumes of DMSO that test agents wells received. Following drugging, cells were exposed at the concentrations and dilutions described in Table 20 for 72 hours at 37° C. in a humidified incubator.
(§5) 3. 72 hr: Following 72 hour exposure, 100 μl of a 1:1 mixture of sterile water and CellTiter-Glo® Reagent was added to each well. The plates are incubated for 60 minutes at room temperature. After incubation, luminescence was recorded using a luminometer. The results are shown below in Table 21 and in FIGS. 15A, 15B, 15C and 15D.
(§6) Data is expressed as the percent cell growth of the untreated (vehicle) control calculated from the luminescence signals. The surviving fraction of cells was determined by dividing the mean luminescence values of the test agents by the mean luminescence values of untreated control. The inhibitory concentration value for the test agent(s) and control was estimated using Prism 6 software (GraphPad Software, Inc.) by curve-fitting the data using the non-linear regression analysis.

[2] = tested on: SU-DHL-10 (Diffuse Large B-Cell Lymphoma); assay: as above; format: cell-based; conditions: Homo sapiens, SU-DHL10, SU-DHL-10 cells
Procedure: as §1, §2, §3, §4, §5, §6

[3] = tested on: U266 (Myeloma); assay: as above; format: cell-based; conditions: Homo sapiens, U-266, U266 cells
Procedure: as §1, §2, §3, §4, §5, §6

[4] = tested on: Jeko-1 (Mantle Cell Lymphoma); assay: as above; format: cell-based; conditions: Homo sapiens, Jeko-1 cells
Procedure: as §1, §2, §3, §4, §5, §6

[5] = Storage stability, 40° C., 75% RH; format: physicochemical; conditions: for Appearance / Impurity Compound 2 / Impurity Compound 4 / Impurity Compound 5 / Largest individual unknown impurity / Total Impurities / Water Content: 40° C., 75% RH
Procedure: (§7) As shown below, the compounds can remain >99% pure after being held at 25° C. and 60% relative humidity for six months. The compounds can remain >95% pure after being held at 40° C. and 75% relative humidity for six months.

[6] = Storage stability, 25° C., 60% RH; format: physicochemical; conditions: for Appearance / Impurity Compound 2 / Impurity Compound 4 / Impurity Compound 5 / Largest individual unknown impurity / Total Impurities / Water Content: 25° C., 60% RH
Procedure: as §7

[7] = Stability of salt forms versus free base (statement in words); conditions: comparison of free base, hemi-tartrate and benzenesulfonic acid salt

SMILES: COc1cccc2c1C(=O)c1c(O)c3c(c(O)c1C2=O)C[C@@](O)(C(=O)CO)C[C@@H]3O[C@H]1C[C@H](N)[C@H](O)[C@H](C)O1 [Adriamycin, reference compound]
- IC50 [1]: 0.02 µM
- IC50 [2]: 0.00085 µM

SMILES: COC1C(OC(=O)N[C@H]2CC[C@H](N)CC2)CC[C@]2(CO2)C1C1(C)O[C@@H]1CC=C(C)C (stereo partly drawn) [Formula I, (1R,4r)-4-(((((3R,4S,5S,6R)-5-methoxy-4-((2R,3R)-2-methyl-3-(3-methylbut-2-en-1-yl)oxiran-2-yl)-1-oxaspiro[2.5]octan-6-yl)oxy)carbonyl)amino)cyclohexan-1-aminium benzenesulfonate]
- IC50 [1]: 20.4 µM
- IC50 [2]: 6.2 µM
- IC50 [3]: 54.6 µM
- IC50 [4]: 30.7 µM

SMILES: COC1C(OC(=O)N[C@H]2CC[C@H](N)CC2)CCC2(CO2)C1C1(C)OC1CC=C(C)C (stereo partly drawn) [free base form of Formula I, fumagill-6-yl N-(trans-4-aminocyclohexyl)carbamate]
- stability (in words) [7]: inherently unstable

Now from value to compound:

- IC50 [3]: 0.0024 µM
- IC50 [4]: 0.4 µM
SMILES: CC(C)C[C@H](NC(=O)[C@H](Cc1ccccc1)NC(=O)c1cnccn1)B(O)O [Bortezomib, reference compound]

- Appearance ([5]; 0 Months): White powder,
- Impurity Compound 2 ([5]; 0 Months): <0.1%
- Impurity Compound 4 ([5]; 0 Months): <0.1%
- Impurity Compound 5 ([5]; 0 Months): 0.1%
- Largest individual unknown impurity ([5]; 0 Months): <0.1%
- Total Impurities ([5]; 0 Months): 0.1%
- Water Content ([5]; 0 Months): 0.41%
- Appearance ([5]; 1 Month): White powder,
- Impurity Compound 2 ([5]; 1 Month): 1.0%
- Impurity Compound 5 ([5]; 1 Month): 0.1%
- Largest individual unknown impurity ([5]; 1 Month): 0.2%
- Total Impurities ([5]; 1 Month): 1.5%
- Water Content ([5]; 1 Month): 1.54%
- Appearance ([5]; 2 Months): White powder,
- Impurity Compound 2 ([5]; 2 Months): 1.4%
- Impurity Compound 4 ([5]; 2 Months): 0.3%
- Impurity Compound 5 ([5]; 2 Months): 0.1%
- Largest individual unknown impurity ([5]; 2 Months): 0.3%
- Total Impurities ([5]; 2 Months): 2.4%
- Water Content ([5]; 2 Months): 1.19%
- Appearance ([5]; 3 Months): White powder,
- Impurity Compound 2 ([5]; 3 Months): 1.6%
- Impurity Compound 4 ([5]; 3 Months): 0.5%
- Impurity Compound 5 ([5]; 3 Months): 0.2%
- Largest individual unknown impurity ([5]; 3 Months): 0.4%
- Total Impurities ([5]; 3 Months): 3.1%
- Water Content ([5]; 3 Months): 2.57%
- Appearance ([5]; 6 months): White powder,
- Impurity Compound 2 ([5]; 6 months): 1.5%
- Impurity Compound 4 ([5]; 6 months): 1.4%
- Impurity Compound 5 ([5]; 6 months): 0.5%
- Largest individual unknown impurity ([5]; 6 months): 0.3%
- Total Impurities ([5]; 6 months): 4.2%
- Water Content ([5]; 6 months): 3.19%
- purity remaining after storage ([5]; held at 40° C. and 75% relative humidity for six months): > 95%
- Appearance ([6]; 0 Months): White powder,
- Impurity Compound 2 ([6]; 0 Months): <0.1%
- Impurity Compound 4 ([6]; 0 Months): <0.1%
- Impurity Compound 5 ([6]; 0 Months): 0.1%
- Largest individual unknown impurity ([6]; 0 Months): <0.1%
- Total Impurities ([6]; 0 Months): 0.1%
- Water Content ([6]; 0 Months): 0.41%
- Appearance ([6]; 1 Month): White powder,
- Impurity Compound 2 ([6]; 1 Month): 0.3%
- Impurity Compound 5 ([6]; 1 Month): 0.1%
- Largest individual unknown impurity ([6]; 1 Month): <0.1%
- Total Impurities ([6]; 1 Month): 0.5%
- Water Content ([6]; 1 Month): 0.60%
- Appearance ([6]; 2 Months): White powder,
- Impurity Compound 2 ([6]; 2 Months): 0.4%
- Impurity Compound 4 ([6]; 2 Months): 0.1%
- Impurity Compound 5 ([6]; 2 Months): 0.1%
- Largest individual unknown impurity ([6]; 2 Months): <0.1%
- Total Impurities ([6]; 2 Months): 0.5%
- Water Content ([6]; 2 Months): 0.57%
- Appearance ([6]; 3 Months): White powder,
- Impurity Compound 2 ([6]; 3 Months): 0.5%
- Impurity Compound 4 ([6]; 3 Months): 0.1%
- Impurity Compound 5 ([6]; 3 Months): 0.1%
- Largest individual unknown impurity ([6]; 3 Months): <0.1%
- Total Impurities ([6]; 3 Months): 0.7%
- Water Content ([6]; 3 Months): 1.73%
- Appearance ([6]; 6 months): White powder,
- Impurity Compound 2 ([6]; 6 months): 0.6%
- Impurity Compound 4 ([6]; 6 months): 0.1%
- Impurity Compound 5 ([6]; 6 months): 0.1%
- Largest individual unknown impurity ([6]; 6 months): <0.1%
- Total Impurities ([6]; 6 months): 0.9%
- Water Content ([6]; 6 months): 1.58%
- purity remaining after storage ([6]; held at 25° C. and 60% relative humidity for six months): > 99%
SMILES: CO[C@@H]1[C@H](OC(=O)N[C@H]2CC[C@H](N)CC2)CC[C@]2(CO2)[C@H]1[C@@]1(C)O[C@@H]1CC=C(C)C.O=S(=O)(O)c1ccccc1 [Form II of Formula I, fumagill-6-yl N-(trans-4-aminocyclohexyl)carbamate benzenesulfonic acid salt]
